Results: patent US5834461A, “Tricyclic benzazepine vasopressin antagonists” (American Cyanamid Company, priority 1997, dated 1998)

Columns and labels:
vasopressin V1 = assay: Vasopressin V1 Antagonist Activity in Conscious Rats (vasopressin vasopressor response); type: in vivo, rat (spontaneously hypertensive rats); parameters: Average Change: unit not given here
Procedure: Conscious rats are restrained in a supine position with elastic tape. The area at the base of the tail is locally anesthetized by subcutaneous infiltration with 2% procaine (0.2 ml). Using aseptic technique the ventral caudal tail artery is isolated and a cannula made of PE 10 and 20 (heat-fused) tubing is passed into the lower abdominal aorta. The cannula is secured, heparinized (1000 i.u./cc), sealed and the wound closed with one or two stitches of Dexon 4-0. The caudal vein is also cannulated in the same manner for intravenous drug administration. The duration of the surgery is approximately 5 minutes. Additional local anesthesia (2% procaine or lidocaine) is provided as needed.
The animals are placed in plastic restraining cages in an upright position. The cannula is attached to a Statham P23Db pressure transducer and pulsatile blood pressure is recorded. […] The vasopressin injections are repeated 30, 60, 90, 120, 180, 240 and 300 min. later. Percentage of antagonism by the compound is calculated using the pre-drug vasopressin vasopressor response as 100%.

[1] = molecular target: vasopressin V1 receptor (rat liver plasma membranes) (Rattus norvegicus, UniProt P30560); assay: Binding Assay to Rat Hepatic V1 Receptors; conditions: for IC50: rat hepatic V1
Procedure: Rat liver plasma membranes expressing the vasopressin V1 receptor subtypes are isolated by sucrose density gradient according to the method described by Lesko et al., (1973). These membranes are quickly suspended in 50.0 mM Tris.HCl buffer, pH 7.4, containing 0.2% bovine serum albumin (BSA) and 0.1 mM phenylmethylsulfonylfluoride (PMSF) and kept frozen at -70° C. until used in subsequent binding experiments. For binding experiments, the following is added to the wells of a ninety-six well format microtiter plate: 100 μl of 100.0 mM Tris.HCl buffer containing 10.0 mM MgCl2, 0.2% heat inactivated BSA and a mixture of protease inhibitors: leupeptin, 1.0 mg %; aprotinin, 1.0 mg %; 1,10-phenanthroline,2.0 mg %; trypsin inhibitor, 10.0 mg % and 0.1 mM PMSF, 20.0 μl of [phenylalanyl-3,4,5,-^3 H] vasopressin (S.A. 45.1 Ci/mmole) at 0.8 nM, and the reaction initiated by the addition of 80 μl of tissue membranes containing 20 μg of tissue protein. The plates are kept undisturbed on the bench top at room temperature for 120 min. to reach equilibrium. Non-specific samples are assayed in the presence of 0.1 μM of the unlabeled antagonist phenylalanylvasopressin, added in 20.0 μl volume.
For test compounds, these are solubilized in 50% dimethylsulfoxide (DMSO) and added in 20.0 μl volume to a final incubation volume of 200 μl. Upon completion of binding, the content of each well is filtered off, using a Brandel® cell Harvester (Gaithersburg, Md.). The radioactivity trapped on the filter disk by the ligand-receptor complex is assessed by liquid scintillation counting in a Packard LS Counter, with an efficiency of 65% for tritium.

[2] = molecular target: T1, rat kidney medullary V2 receptors (Rattus norvegicus, UniProt Q00788); assay: Binding Assay to Rat Kidney Medullary V2 Receptors; conditions: for IC50: rat kidney medullary V2
T1 construct: Medullary tissues from rat kidneys are dissected out; from tissue; host or cells: rat kidney medulla membranes
Procedure: Medullary tissues from rat kidneys are dissected out, cut into small pieces and soaked in a […] sodium chloride solution containing 1.0 mM EDTA with many changes of the liquid phase, until the solution is clear of blood. The tissue is homogenized in a 0.25M sucrose solution containing 1.0 mM EDTA and 0.1 mM PMSF using a Potter-Elvehjem homogenizer with a teflon pestle. The homogenate is filtered through several layers (4 layers) of cheese cloth. The filtrate is rehomogenized using a dounce homogenizer, with a tight fitting pestle. The final homogenate is centrifuged at 1500×g for 15 min. The nuclear pellet is discarded and the supernatant fluid recentrifuged at 40,000×g for 30 min. The resulting pellet formed contains a dark inner part with the exterior, slightly pink. The pink outer part is suspended in a small amount of 50.0 mM Tris.HCl buffer, pH 7.4. The protein content is determined by the Lowry's method (Lowry et al., J. Biol. Chem., 1953). The membrane suspension is stored at -70° C., in 50.0 mM Tris.HCl, containing 0.2% inactivated BSA and 0.1 mM PMSF in aliquots of 1.0 ml containing 10.0 mg protein per ml of suspension until use in subsequent binding experiments.
For binding experiments, the following is added in μl volume to wells of a 96 well format of a microtiter plate: 100.0 μl of 100.0 mM Tris.HCl buffer containing 0.2% heat inactivated BSA, 10.0 mM MgCl2 and a mixture of protease inhibitors: leupeptin, 1.0 mg %; aprotinin, 1.0 mg %; 1,10-phenanthroline, 2.0 mg %; trypsin inhibitor, 10.0 mg % and 0.1 mM PMSF, 20.0 μl of [^3 H] Arginine^8, vasopressin (S.A. 75.0 Ci/mmole) at 0.8 nM and the reaction initiated by the addition of 80.0 μl of tissue membranes (200.0 μg tissue protein). The plates are left undisturbed on the bench top for 120 min to reach equilibrium. Non-specific binding is assessed in the presence of 1.0 μM of unlabeled ligand, added in 20 μl volume. For test compounds, these are solubilized in 50% dimethylsulfoxide (DMSO) and added in 20.0 μl volume to a final incubation volume of 200 μl. Upon completion of binding, the content of each well is filtered off, using a Brandel® cell Harvester (Gaithersburg, Md.). The radioactivity trapped on the filter disk by the ligand-receptor complex is assessed by liquid scintillation counting in a Packard LS Counter, with an efficiency of 65% for tritium.

vasopressin V2 = assay: Vasopressin V2 Antagonist Activity in Conscious Hydrated Rats (diuretic effect); type: in vivo, normal Sprague-Dawley rats; conditions: 10 mg/kg orally, AVP 0.4 μg/kg i.p.
Procedure: Conscious hydrated rats are treated with compounds under study from 0.1 to 100 mg/kg orally or vehicle. Two to four rats are used for each compound. One hour later, arginine vasopressin (AVP, antidiuretic hormore, ADH) dissolved in peanut oil is administered at 0.4 μg/kg intraperitoneally. Two rats in each test would not receive arginine vasopressin but only the vehicle (peanut oil) to serve as water-loading control. Twenty minutes later each rat is given 30 mL/kg of deionized water orally by gavage and is placed individually in a metabolic cage equipped with a funnel and a graduated glass cylinder to collect urine for four hours. Urine volume is measured and osmolality analyzed by use of a Fiske One-Ten osmometer (Fiske Assoc., Norwood, Mass., USA). Urinary sodium, potassium, and chloride are analyzed by use of ion-specific electrodes in a Beckman E3 (Electrolyte 3) Analyzer. In the following results, […] and decreased osmolality relative to AVP-control indicates activity.

[3] = 10 mg/kg i.v., VAS 0.01 i.u./kg, 30 min
[4] = 10 mg/kg i.v., VAS 0.02 i.u./kg, 30 min
[5] = 20 mg/kg i.v., VAS 0.01 i.u./kg, 60 min
[6] = 20 mg/kg i.v., VAS 0.01 i.u./kg, 90 min
[7] = 20 mg/kg i.v., VAS 0.01 i.u./kg, 120 min
[8] = 20 mg/kg i.v., VAS 0.01 i.u./kg, 180 min
[9] = 20 mg/kg i.v., VAS 0.01 i.u./kg, 240 min
[10] = 20 mg/kg i.v., VAS 0.01 i.u./kg, 300 min
[11] = 20 mg/kg i.v., VAS 0.02 i.u./kg, 60 min
[12] = 20 mg/kg i.v., VAS 0.02 i.u./kg, 90 min
[13] = 20 mg/kg i.v., VAS 0.02 i.u./kg, 120 min
[14] = 20 mg/kg i.v., VAS 0.02 i.u./kg, 180 min
[15] = 20 mg/kg i.v., VAS 0.02 i.u./kg, 240 min
[16] = 20 mg/kg i.v., VAS 0.02 i.u./kg, 300 min

Chain of vasopressin V1 receptor (rat liver plasma membranes) (P30560 whole entry): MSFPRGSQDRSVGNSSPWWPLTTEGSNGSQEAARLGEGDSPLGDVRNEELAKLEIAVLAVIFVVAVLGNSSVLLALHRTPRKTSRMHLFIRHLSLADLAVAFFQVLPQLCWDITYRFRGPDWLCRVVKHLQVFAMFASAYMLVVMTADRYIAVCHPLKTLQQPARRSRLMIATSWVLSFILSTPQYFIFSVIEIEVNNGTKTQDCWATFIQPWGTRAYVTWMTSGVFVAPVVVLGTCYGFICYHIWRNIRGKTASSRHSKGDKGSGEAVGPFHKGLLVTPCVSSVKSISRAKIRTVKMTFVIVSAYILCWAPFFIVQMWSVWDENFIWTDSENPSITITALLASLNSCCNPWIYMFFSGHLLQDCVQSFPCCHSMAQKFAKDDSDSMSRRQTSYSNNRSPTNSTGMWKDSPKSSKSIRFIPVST
T1 sequence (Q00788 whole entry): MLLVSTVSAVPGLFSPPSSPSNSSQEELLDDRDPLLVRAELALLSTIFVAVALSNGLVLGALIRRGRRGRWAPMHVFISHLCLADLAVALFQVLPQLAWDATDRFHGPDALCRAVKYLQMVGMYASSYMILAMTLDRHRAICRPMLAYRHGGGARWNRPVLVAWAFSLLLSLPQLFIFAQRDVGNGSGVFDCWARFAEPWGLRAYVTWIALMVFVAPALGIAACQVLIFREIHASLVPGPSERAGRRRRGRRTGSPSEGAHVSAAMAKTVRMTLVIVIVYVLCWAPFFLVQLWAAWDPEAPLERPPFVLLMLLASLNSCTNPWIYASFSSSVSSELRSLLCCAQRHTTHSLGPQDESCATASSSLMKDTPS

`O=C(Nc1ccc(C(=O)N2Cc3ccccc3Sc3ccccc32)cc1)c1ccc(Cl)cc1Cl` [Example 449, N-[4-[(Dibenz[b,f][1,4]thiazepin-10(11H)-yl)-carbonyl]phenyl]-2 4-dichlorobenzamide] was tested, and the “MAX % Inhibition” value (vasopressin V1; 10 mg/kg i.v.) was 45%, the “Time of max % inhibition” value (vasopressin V1; 10 mg/kg i.v.) was 90 min and the IC50 [1] was 360 nM. For the same molecule, the IC50 [2] was 250 nM.

With `O=C(Nc1ccc(C(=O)N2Cc3ccccc3Cc3ccccc32)cc1)c1ccc(Cl)cc1Cl` [Example 10, N-[4-[(6,11-Dihydro-5H-dibenz[b,e]azepin-5-yl)carbonyl]phenyl]2,4-dichlorobenzamide] the “Average Change” value (vasopressin V1; [3]) was 37.5, the Inhibition (vasopressin V1; [3]) was -25% and the “Average Change” value (vasopressin V1; [4]) was 64.5. The Inhibition (vasopressin V1; [4]) was -26%, the “Average Change” value (vasopressin V1; [5]) was 14.5 and the Inhibition (vasopressin V1; [5]) was 52%. For the same molecule, the “Average Change” value (vasopressin V1; [6]) was 16, the Inhibition (vasopressin V1; [6]) was 47% and the “Average Change” value (vasopressin V1; [7]) was 13.5. For the same molecule, the Inhibition (vasopressin V1; [7]) was 55%, the “Average Change” value (vasopressin V1; [8]) was 25.5 and the Inhibition (vasopressin V1; [8]) was 15%. The “Average Change” value (vasopressin V1; [9]) was 22.5, the Inhibition (vasopressin V1; [9]) was 25% and the “Average Change” value (vasopressin V1; [10]) was 24.5. The Inhibition (vasopressin V1; [10]) was 18%, the “Average Change” value (vasopressin V1; [11]) was 22.5 and the Inhibition (vasopressin V1; [11]) was 56%. The “Average Change” value (vasopressin V1; [12]) was 23, the Inhibition (vasopressin V1; [12]) was 55% and the “Average Change” value (vasopressin V1; [13]) was 22. The Inhibition (vasopressin V1; [13]) was 57%, the “Average Change” value (vasopressin V1; [14]) was 29.5 and the Inhibition (vasopressin V1; [14]) was 42%. For the same molecule, the “Average Change” value (vasopressin V1; [15]) was 34.5, the Inhibition (vasopressin V1; [15]) was 32% and the “Average Change” value (vasopressin V1; [16]) was 34. It also gave an Inhibition (vasopressin V1; [16]) of 33%, an IC50 [1] of 170 nM and an IC50 [2] of 64 nM. The Osmolality (vasopressin V2) was 1023 mOsm/kg and the “Urine Volume” value (vasopressin V2) was 7.1 ml/4 hrs.

For `Cc1cccc(NC(=O)c2ccc(C(=O)N3Cc4ccccc4Cc4ccccc43)cc2)c1C` [Example 124, 4-[(6.11-Dihydro-5H-dibenz[b,e]azepin-5-yl)-carbonyl]-N-(2,3-dimethylphenyl)benzamide], the “Average Change” value (vasopressin V1; [3]) was 38.5, the “Average Change” value (vasopressin V1; [4]) was 43.5 and the Inhibition (vasopressin V1; [4]) was -23%. For the same molecule, the “Average Change” value (vasopressin V1; [5]) was 4, the Inhibition (vasopressin V1; [5]) was 88% and the “Average Change” value (vasopressin V1; [6]) was 12.5. The Inhibition (vasopressin V1; [6]) was 62%, the “Average Change” value (vasopressin V1; [7]) was 12.5 and the Inhibition (vasopressin V1; [7]) was 62%. The “Average Change” value (vasopressin V1; [8]) was 21, the Inhibition (vasopressin V1; [8]) was 35% and the “Average Change” value (vasopressin V1; [9]) was 18. For the same molecule, the Inhibition (vasopressin V1; [9]) was 45%, the “Average Change” value (vasopressin V1; [10]) was 20 and the Inhibition (vasopressin V1; [10]) was 38%. The “Average Change” value (vasopressin V1; [11]) was 17.5, the Inhibition (vasopressin V1; [11]) was 51% and the “Average Change” value (vasopressin V1; [12]) was 18. The Inhibition (vasopressin V1; [12]) was 49%, the “Average Change” value (vasopressin V1; [13]) was 9.5 and the Inhibition (vasopressin V1; [13]) was 45%. The “Average Change” value (vasopressin V1; [14]) was 21.5, the Inhibition (vasopressin V1; [14]) was 39% and the “Average Change” value (vasopressin V1; [15]) was 24.5. For the same molecule, the Inhibition (vasopressin V1; [15]) was 31%, the “Average Change” value (vasopressin V1; [16]) was 33.5 and the Inhibition (vasopressin V1; [16]) was 6%. The IC50 [1] was 1200 nM, the IC50 [2] was 210 nM and the Osmolality (vasopressin V2) was 1172 mOsm/kg. For the same molecule, the “Urine Volume” value (vasopressin V2) was 5.5 ml/4 hrs.

`O=C(Nc1ccc(C(=O)N2Cc3ccccc3-c3ccccc32)cc1)c1ccc(Cl)c(Cl)c1` [Example 8, 3.4-Dichloro-N-[4-[(5(6H)-phenanthridinyl)carbonyl]phenyl]benzamide] was tested, and the IC50 [1] was 2800 nM and the IC50 [2] was 1500 nM.

`O=C(Nc1ccc(C(=O)N2Cc3ccccc3Cc3ccccc32)cc1)c1ccc(C(F)(F)F)cc1` [Example 20, N-[4-[(6,11-Dihydro-5H-dibenz[b,e]azepin-5-yl)carbonyl]phenyl]-4-(trifluoromethyl)benzamide] gave an inhibition at 10 µM ([1]; 2 h, 10 μM, rat hepatic, read-out: V1, % at concentration in brackets) of 17% and an inhibition at 10 µM ([2]; 10 μM, rat kidney, read-out: V2, % at concentration in brackets) of 48%.

Work on `O=C(Nc1ccc(C(=O)N2Cc3ccccc3Cc3ccccc32)cc1)c1ccccc1C(F)(F)F` [Example 166, N-[4-[(6,11-Dihydro-5H-dibenz(b,e]azepin-5-yl)carbonyl]phenyl]-2-trifluoromethylbenzamide] yielded an IC50 [1] of 83 nM and an IC50 [2] of 245 nM.

In the case of `O=C(Nc1ccc(C(=O)N2Cc3ccccc3Cc3ccccc32)cc1)c1cccnc1` [Example 17, N-[4-[(6,11-Dihydro-5H-dibenz[b,e]azepin-5-yl)-carbonyl]phenyl]-3-pyridinecarboxamide], the inhibition at 50 µM ([1]; 2 h, 50 μM, rat hepatic, read-out: V1, % at concentration in brackets) is reported as 65% and the inhibition at 50 µM ([2]; 50 μM, rat kidney, read-out: V2, % at concentration in brackets) is reported as 52%.
